# From article PMC12000511, “Molecular basis for the assembly of the Vps5-Vps17 SNX-BAR proteins with Retromer” (Nature Communications, 2025)
# Like-named read-outs stand apart in the source and are kept apart here. Where no end group is shown, it is not given here.
# B1: scSNX-BAR-GFP: scVps5–scVps17 heterodimer tagged with GFP (protein)
# chain 1: MDYEDNLEAPVWDELNHEGDKTQSLVSNSIESIGQISTNEERKDNELLETTASFADKIDLDSAPEWKDPGLSVAGNPQLEEHDNSKADDLINSLAPEQDPIADLKNSTTQFIATRESGGALFTGNANSPLVFDDTIYDANTSPNTSKSISGRRSGKPRILFDSARAQRNSKRNHSLKAKRTTASDDTIKTPFTDPLKKAEKENEFVEEPLDDRNERRENNEGKFTASVEKNILEQVDRPLYNLPQTGANISSPAEVEENSEKFGKTKIGSKVPPTEKAVAFKVEVKDPVKVGELTSIHVEYTVISESSLLELKYAQVSRRYRDFRWLYRQLQNNHWGKVIPPPPEKQSVGSFKENFIENRRFQMESMLKKICQDPVLQKDKDFLLFLTSDDFSSESKKRAFLTGSGAINDSNDLSEVRISEIQLLGAEDAAEVLKNGGIDAESHKGFMSISFSSLPKYNEADEFFIEKKQKIDELEDNLKKLSKSLEMVDTSRNTLAASTEEFSSMVETLASLNVSEPNSELLNNFADVHKSIKSSLERSSLQETLTMGVMLDDYIRSLASVKAIFNQRSKLGYFLVVIENDMNKKHSQLGKLGQNIHSEKFREMRKEFQTLERRYNLTKKQWQAVGDKIKDEFQGFSTDKIREFRNGMEISLEAAIESQKECIELWETFYQTNL
# chain 2: MTSAVPYDPYDDLDNNPFAEPQEEDSEPAATTTDGSSSMSEERVGTEQTAASVQDNGTANNIQNGLGEEGNATRSKTSNEHNENQQPSQPSERVILPERSDEKKKYTLLAKVTGLERFGSATGKKENPTIIFDCSTNLPTFRKQQYKNVKKSYEEFHQLFKYLNVAIQESFVPTLPSAYTTFGINSEEDRMKVTRNFQLWFNRLSQDPLIIRNEEVAFFIESDFNTYTPINKSKSLASGLKRKTLKQLAPPYDEITELAEFRPLVKSIYVVSQSLQEKLLRVSRNRKMMVQEENAFGQDFVNLDEHNKLYRRYGKILTAVGDIDSIIATMDMATLYDGLEWIVRDAYAVKEALTNRHFIMRNLVQAQQNSKAKQEQARRFRSRRDINPMKIDEALRQLKAAAKNEQVLTLKLQRITSNMIIERKQWISWYEEWIRSSIKEFTLRKIEYERKKLTLLERVRSDIRKADENGGLSRLGRHAVSNNNSDTSQTLKGDSWTGESNRKSQIPINKIAHTEFDDELFTEDDGYNSQDSDTTSLNARHAASLLGMSTK
# B2: GST-mSNX1_1–139: SNX1 N-terminal residues 1–139 (protein)
# chain: MASGGGGCSASERLPPPFPGLEPESEGAAGGSEPEAGDSDTEGEDIFTGAAVVSKHQSPKITTSLLPINNGSKENGIHEEQDQEPQDLFADATVELSLDSTQNNQKKVLAKTLISLPPQEATNSSKPQPTYEELEEEEQ
# modifications: left off: GST, end not stated, kept
# How the values were obtained:
# ctRetromer = ctRetromer (Thermochaetoides thermophila, UniProt G0RZB5+G0S709); test: ITC, binding to ctRetromer; parameters: species or system Chaetomium thermophilum
# Method: (§1) All the bacterial constructs were expressed in BL21(DE3) competent cells using standard isopropyl 1-thio-β-D-galactopyranoside induction or autoinduction method as described previously[39],[72],[73]. To obtain the Retromer trimer complex, the GST-tagged Vps29 and Vps35 co-expressed cell pellet were mixed with His-Vps26 and resuspended in lysis buffer containing 50 mM Tris-HCl pH 7.5, 200 mM NaCl, 5% glycerol, 50 μg/ml benzamidine and DNase I before passed through a Constant System TS-Series cell disruptor. […] For all constructs, the lysate was clarified by centrifugation and the supernatant was loaded onto either Talon® resin (Clonetech) or glutathione sepharose (GE healthcare) for initial purification. To obtain the correct stoichiometry ratio of the Retromer complex, both Talon® resin and glutathione sepharose (GE healthcare) were applied. […] The flow-through containing complex was further purified using size-exclusion chromatography (SEC) equilibrated with a buffer containing 50 mM Tris-HCl pH 7.5, 200 mM NaCl, 2 mM β-ME. […] To avoid the non-specific cleavage by the residual proteases such as thrombin, a tablet of protease inhibitor cocktail was added into the complex mixture. To remove the unbound fractions, the complex mixture was further purified using Superose 6 increase 10/300 GL column using the SEC buffer described above.
# In brief, the clarified lysate was loaded onto glutathione sepharose (GE healthcare) and eluted using elution buffer containing 50 mM Tris-HCl pH 7.5, 200 mM NaCl, 5% glycerol, 20 mM glutathione reduced and 50 μg/ml benzamidine. The flow-through was further purified using SEC as the final purification step. To avoid the degradation, the constructs containing N-terminal disordered parts of Vps5 and Vps17 were used in fresh and experiments were finished within 3 days after purification.
# (§2) All the proteins used for ITC experiments were prepared in buffer containing 50 mM Tris-HCl pH 7.5, 200 mM NaCl, 2 mM β-ME. […] In all cases, the ITC titration sequence consisted of an initial 0.4 μl (not used in data processing) followed by 12 serial injections of 3.22 μl each with 180 s intervals. The resulting titration data were integrated with Malvern software package by fitting and normalized data to a single-site binding model, yielding the thermodynamic parameters Kd, ∆H, ∆G and −T∆S for all binding experiments. The stoichiometry was refined initially, and if the value was close to 1, then N was set to exactly 1.0 for calculation. Data presented are the mean of triplicate titrations for each experiment.
# [1] = biological target: ctRetromer (Chaetomium thermophilum Retromer trimer of ctVps35, ctVps26 and ctVps29) (Chaetomium thermophilum); test: ITC; Microcal PEAQ ITC, 25 °C, 50 mM Tris-HCl pH 7.5, 200 mM NaCl, 2 mM β-ME; Vps5/Vps17/SNX1 construct or peptide (200-400 µM) titrated into 10-15 µM Retromer or Vps29; single-site model, N set to 1.0 if close to 1
# [2] = system: scRetromer and scSNX-BAR on supported membrane tubes; test: Supported membrane tube (SMT) assay; type: biochemical, Saccharomyces cerevisiae; settings: scSNX-BAR and scRetromer on SMTs containing 5% PtdIns(3)P
# Method: Supported membrane tubes were generated as described[46]. Briefly, glass coverslips were first washed with 3 M NaOH for 5 min and rinsed with water before a 60 min treatment with piranha solution (95% H2SO4/30% H2O2 3:2 v/v). Coverslips were rinsed with water and dried on a heat block at 90 °C. Coverslips were then silanized with 3-glycidyloxypropyltrimethoxysilane (Catalogue no. 440167, Sigma) for 5 h under vacuum, rinsed with acetone and dried. Polyethylene glycol coating was done by placing the coverslips in a beaker containing PEG400 (Sigma) at 90 °C for 60 h. Coverslips were washed with distilled water and stored for up to 2 months at room temperature in a closed container.
# To generate supported membrane tubes, lipids were mixed from 10 mg/mL stocks in a glass vial and diluted to a final concentration of 1 mg/mL in chloroform. The same lipid mix was used throughout this study (5% PI(3)P, 15% DOPS, 0.1% fluorescent lipid tracer (Cy5.5 PE or Texas red DHPE), 79.5% egg-PC). Lipids were then spotted (typically 1 µL, corresponding to about 1 nmol) on the coverslips and dried for 30 min under vacuum. The coverslip was mounted on an IBIDI 6-channel µ-slide (µ-Slide VI 0.4. IBIDI, catalog no: 80606). Lipids were hydrated for 15 min with buffer (PBS) and SMTs were generated by injecting PBS into the chamber using an Aladdin Single-Syringe Pump (World Precision Instruments, model n°. AL-1000) at a flow rate of 1,5 mL/min for 5 min. SMTs were left to stabilize without flow for 5 min before the start of the experiment. Protein stocks (typically 1–2 µM) were first diluted in PBS and then injected in the chamber at a flow rate of 80 µL per minute. Cyclic peptides were added to the proteins from a 30 mM stock in DMSO to a final concentration of 300 µM. the protein/peptide mix was incubated for 1 min at room temp (23 °C) before being added to the SMTubes.
# [3] = biological target: mouse VPS29 (mVPS29), long isoform (mouse); test: ITC; Microcal PEAQ ITC, 25 °C, 50 mM Tris-HCl pH 7.5, 200 mM NaCl, 2 mM β-ME; Vps5/Vps17/SNX1 construct or peptide (200-400 µM) titrated into 10-15 µM Retromer or Vps29; single-site model, N set to 1.0 if close to 1
# mVps29 = biological target: T1, mVps29 (Mus musculus, UniProt Q9QZ88); test: ITC, binding to mVps29; settings: ITC, mVps29
# T1 construct: GST (thrombin site) (N, cleaved yes); made in house; host or cells: E. coli BL21(DE3)
# Method: as §1, §2
# hRetromer = biological target: T2, hRetromer (Homo sapiens, UniProt Q96QK1+Q9UBQ0); test: ITC, binding to hRetromer; settings: for binding to hRetromer: ITC, same conditions as ctRetromer
# T2 construct: GST (N); made in house; host or cells: E. coli BL21(DE3) (general statement for bacterial constructs)
# Method: as §1, §2
# [4] = ITC, ctRetromer, Average of 3 batches
# [5] = ctRetromer alone, ITC 25 °C, pH 7.5, 200 mM NaCl, mean of triplicate titrations
# ctRetromer, sequence (G0RZB5 entry or part of it): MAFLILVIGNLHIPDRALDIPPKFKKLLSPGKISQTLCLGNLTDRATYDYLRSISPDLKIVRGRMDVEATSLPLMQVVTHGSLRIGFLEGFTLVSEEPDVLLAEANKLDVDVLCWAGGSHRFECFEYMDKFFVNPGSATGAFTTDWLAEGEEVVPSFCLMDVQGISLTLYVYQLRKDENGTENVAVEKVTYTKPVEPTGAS
# ctRetromer, sequence (G0S709 entry or part of it): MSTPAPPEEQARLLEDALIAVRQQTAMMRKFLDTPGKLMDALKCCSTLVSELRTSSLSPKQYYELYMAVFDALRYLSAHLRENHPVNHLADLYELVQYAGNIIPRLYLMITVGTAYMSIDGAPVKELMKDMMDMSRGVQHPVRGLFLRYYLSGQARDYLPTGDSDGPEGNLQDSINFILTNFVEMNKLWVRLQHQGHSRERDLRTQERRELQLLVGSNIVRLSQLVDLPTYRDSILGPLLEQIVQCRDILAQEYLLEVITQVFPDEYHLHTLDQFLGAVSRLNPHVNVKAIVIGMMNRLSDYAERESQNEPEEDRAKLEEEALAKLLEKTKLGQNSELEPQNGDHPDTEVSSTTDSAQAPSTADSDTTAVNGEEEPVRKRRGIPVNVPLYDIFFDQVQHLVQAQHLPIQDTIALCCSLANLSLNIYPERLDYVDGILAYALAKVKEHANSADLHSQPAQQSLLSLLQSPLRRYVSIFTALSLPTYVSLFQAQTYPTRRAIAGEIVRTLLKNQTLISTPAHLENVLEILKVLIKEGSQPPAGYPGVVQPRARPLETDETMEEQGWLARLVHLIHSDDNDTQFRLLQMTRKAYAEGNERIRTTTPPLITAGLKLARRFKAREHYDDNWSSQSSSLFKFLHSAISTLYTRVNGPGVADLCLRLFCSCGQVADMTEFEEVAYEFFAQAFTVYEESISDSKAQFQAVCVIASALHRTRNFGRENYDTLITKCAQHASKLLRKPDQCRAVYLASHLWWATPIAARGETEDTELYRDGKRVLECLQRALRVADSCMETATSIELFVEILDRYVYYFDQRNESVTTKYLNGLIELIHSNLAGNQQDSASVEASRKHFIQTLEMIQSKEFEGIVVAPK
# ctRetromer, sequence (G0S0E6 entry or part of it, further chain): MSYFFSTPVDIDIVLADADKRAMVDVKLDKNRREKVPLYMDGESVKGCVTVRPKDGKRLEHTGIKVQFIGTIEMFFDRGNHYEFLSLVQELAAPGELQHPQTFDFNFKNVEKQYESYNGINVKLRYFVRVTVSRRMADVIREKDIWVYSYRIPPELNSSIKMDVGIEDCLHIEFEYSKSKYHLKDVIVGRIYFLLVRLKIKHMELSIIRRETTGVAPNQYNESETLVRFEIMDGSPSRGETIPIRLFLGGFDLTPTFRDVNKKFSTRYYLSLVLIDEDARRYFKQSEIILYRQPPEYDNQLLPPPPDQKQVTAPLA
molecule,measurement,setting,value
SRATPRRIVAKPKSLEAVEDDPLGPLGA [ctVPS5 53 to 80],Delta G,ctRetromer; [4],-8.38 kcal/mol
same,Delta H,ctRetromer; [4],-2.83 kcal/mol
same,minus T delta S,ctRetromer; [4],-5.57 kcal/mol
same,Delta G,"ctRetromer; ITC, ctRetromer, Batch 1",-8.4 kcal/mol
same,Delta H,"ctRetromer; ITC, ctRetromer, Batch 1",-3.44 kcal/mol
same,minus T delta S,"ctRetromer; ITC, ctRetromer, Batch 1",-4.89 kcal/mol
same,Delta G,"ctRetromer; ITC, ctRetromer, Batch 2",-8.35 kcal/mol
same,Delta H,"ctRetromer; ITC, ctRetromer, Batch 2",-2.43 kcal/mol
same,minus T delta S,"ctRetromer; ITC, ctRetromer, Batch 2",-5.98 kcal/mol
same,Delta G,"ctRetromer; ITC, ctRetromer, Batch 3",-8.38 kcal/mol
same,Delta H,"ctRetromer; ITC, ctRetromer, Batch 3",-2.62 kcal/mol
same,minus T delta S,"ctRetromer; ITC, ctRetromer, Batch 3",-5.85 kcal/mol
"GST-ctVps5_61–80: GST-tagged ctVps5 residues 61–80 (VAKPKSLEAVEDDPLGPLGA; not fully specified (N-terminus); also: GST fusion, end not given here)",binding to ctRetromer,"ctRetromer; ITC 25 °C, pH 7.5, 200 mM NaCl",bind very weakly
same,ΔG,ctRetromer; [5],-5.76 ± 0.12 kcal/mol
same,ΔH,ctRetromer; [5],-7.22 ± 1.94 kcal/mol
same,−TΔS,ctRetromer; [5],1.45 ± 2.07 kcal/mol
same,Kd,"ctRetromer; ctRetromer alone, Microcal PEAQ ITC, 25 °C, 50 mM Tris-HCl pH 7.5, 200 mM NaCl, 2 mM β-ME, single-site model, mean of triplicate titrations, read-out: Kd",60.1 ± 12.2 µM
SRATPRRIVAKPKSLEAVEDDPLGPLGA [ctVps5_53–80 peptide],Kd,ctRetromer; read-out: Kd,0.74 ± 0.05 µM
GST-ctVps5_(51–100) PL74AA (domain or fragment),Kd,[1],5.04 µM
same,dH,[1],-1.76 kcal/mol
scRetromer-mRuby: purified recombinant scRetromer carrying mRuby,coat formation / recruitment on SMTs,[2],co-recruited to the tubes within a minute after their addition
GST-ctVps5_(1–185) (domain or fragment),Kd,[3],4.82 µM
same,dH,[3],-0.91 kcal/mol
same,Kd,[1],0.72 µM
same,dH,[1],-3.1 kcal/mol
GST-ctVps5_(1–50) (domain or fragment),Kd,[1],40.1 µM
same,dH,[1],-2.7 kcal/mol
EDDPLGPLGA [ctVPS5 71 to 80],Kd,"ctRetromer; ITC, ctRetromer, Batch 1",No binding
same,Kd,"ctRetromer; ITC, ctRetromer, Batch 2",No binding
same,Kd,"ctRetromer; ITC, ctRetromer, Batch 3",No binding
same,Delta G,mVps29; Average of 3 batches,-5.8 kcal/mol
same,Delta H,mVps29; Average of 3 batches,-8.0 kcal/mol
same,Delta G,mVps29; Batch 1,-5.92 kcal/mol
same,Delta H,mVps29; Batch 1,-6.98 kcal/mol
same,Delta G,mVps29; Batch 2,-5.8 kcal/mol
same,Delta H,mVps29; Batch 2,-9.07 kcal/mol
same,Delta G,mVps29; Batch 3,-5.82 kcal/mol
same,Delta H,mVps29; Batch 3,-7.81 kcal/mol
ctVps5_(71–80) peptide,Kd,[3],54.1 µM
same,dH,[3],-8 kcal/mol
B1,coat formation / recruitment on SMTs,[2],co-recruited to the tubes within a minute after their addition
B2,Kd,"hRetromer; ITC 25 °C, 50 mM Tris-HCl pH 7.5, 200 mM NaCl, 2 mM β-ME, mean of triplicate titrations",No binding detected
same,binding to hRetromer,hRetromer; listed as GST-hSNX1_1–139,no detectable interaction
same,binding to hRetromer,hRetromer; listed as human SNX1,no detectable association
"VAKPKSLEAVEDDPLGPLGA (domain or fragment, also: GST fusion) [GST-ctVps5_(61–80)]",Kd,[1],60.1 µM
same,dH,[1],-7.22 kcal/mol
SRATPRRIVAKPKSLEAVEDDPLGPLGA [ctVps5_(53–80) peptide],Kd,[1],0.74 µM
same,dH,[1],-2.83 kcal/mol
